Values of other authors in paper PMC12329520 (Molecular Therapy. Nucleic Acids, 2025).

Test system: exon 23 of the Dmd gene
Settings: CP10 conjugated to 2OMePS ASO, mdx mouse

QLFPLFR [CP10]
exon skipping in skeletal muscle tissues and heart compared with an unconjugated ASO of the same chemistry: significant improvement in exon skipping
